# Patent US20090281054A1, “COMPOSITIONS AND METHODS COMPRISING CAPURAMYCIN ANALOGUES” (priority 2008, published 2009)
# Read-outs that look alike come from different tables or passages of the source.
# What was measured:
# MTB in J774A.1 cells = experiment: Intracellular activity of SQ641 with efflux pump blockers; assay type: cell-based, Mycobacterium tuberculosis; details: 4 days exposure
# [1] = tested on: M. kansaii (MKN; ATCC12478 & 35775); experiment: MIC by microdilution method in 7H9 broth; assay type: cell-based, M. kansasii; details: Mycobacterium kansasii, read-out: MIC
# MAC = experiment: Synergy by checkerboard titration (microdilution); assay type: cell-based, M. avium complex; details: for MIC: Mycobacterium avium, drug alone
# [2] = tested on: intracellular MTB (MTBp-SMT1) in J774A.1 macrophages; experiment: Intracellular activity of SQ641-TPGS micelles; assay type: cell-based, Mycobacterium tuberculosis
compound,measurement,setting,value
CCCCCCCCCC(=O)O[C@@H]1[C@H](OC)[C@@H]([C@@H](O[C@H]2OC(C(=O)N[C@H]3CCC[C@@H](C)NC3=O)=C[C@H](O)[C@@H]2O)C(N)=O)O[C@H]1n1ccc(=O)[nH]c1=O [SQ641],Mean RLU at Day 7,"MTB in J774A.1 cells; SQ641 2 μg/ml, Day 0 RLU 811, Control Day 7 3004",1361 RLU
same,Mean RLU at Day 7,"MTB in J774A.1 cells; SQ641 4 μg/ml + CsA10 (12 μg/ml), Day 0 RLU 811, Control Day 7 3004",28 RLU
same,Mean RLU at Day 7,"MTB in J774A.1 cells; SQ641 4 μg/ml + VE10 (5 μg/ml), Day 0 RLU 425, Control Day 7 6283",368 RLU
same,Mean RLU at Day 7,"MTB in J774A.1 cells; SQ641 4 μg/ml, Day 0 RLU 425, Control Day 7 6283",2329 RLU
same,Mean RLU at Day 7,"MTB in J774A.1 cells; SQ641 4 μg/ml, Day 0 RLU 811, Control Day 7 3004",1476 RLU
same,Mean RLU at Day 7,"MTB in J774A.1 cells; SQ641 8 μg/ml + CsA10 (12 μg/ml), Day 0 RLU 811, Control Day 7 3004",15 RLU
same,Mean RLU at Day 7,"MTB in J774A.1 cells; SQ641 8 μg/ml + VE10 (5 μg/ml), Day 0 RLU 425, Control Day 7 6283",44 RLU
same,Mean RLU at Day 7,"MTB in J774A.1 cells; SQ641 8 μg/ml, Day 0 RLU 425, Control Day 7 6283",1392 RLU
same,Mean RLU at Day 7,"MTB in J774A.1 cells; SQ641 8 μg/ml, Day 0 RLU 811, Control Day 7 3004",850 RLU
same,Mean RLU at Day 7,"MTB in J774A.1 cells; SQ641 16 μg/ml + CsA10 (12 μg/ml), Day 0 RLU 811, Control Day 7 3004",14 RLU
same,Mean RLU at Day 7,"MTB in J774A.1 cells; SQ641 16 μg/ml + VE10 (5 μg/ml), Day 0 RLU 425, Control Day 7 6283",18 RLU
same,Mean RLU at Day 7,"MTB in J774A.1 cells; SQ641 16 μg/ml, Day 0 RLU 425, Control Day 7 6283",654 RLU
same,Mean RLU at Day 7,"MTB in J774A.1 cells; SQ641 16 μg/ml, Day 0 RLU 811, Control Day 7 3004",346 RLU
same,Mean RLU at Day 7,"MTB in J774A.1 cells; SQ641 32 μg/ml + CsA10 (12 μg/ml), Day 0 RLU 811, Control Day 7 3004",11 RLU
same,Mean RLU at Day 7,"MTB in J774A.1 cells; SQ641 32 μg/ml + VE10 (5 μg/ml), Day 0 RLU 425, Control Day 7 6283",12 RLU
same,Mean RLU at Day 7,"MTB in J774A.1 cells; SQ641 32 μg/ml, Day 0 RLU 425, Control Day 7 6283",141 RLU
same,Mean RLU at Day 7,"MTB in J774A.1 cells; SQ641 32 μg/ml, Day 0 RLU 811, Control Day 7 3004",113 RLU
same,MIC,"[1]; ATCC 12478 / ATCC 35775, MKN ATCC35775",0.25 µg/mL
same,MIC,[1]; MKN ATCC12478,1 µg/mL
same,ΣFIC,"MAC; MAC A5, SQ641 + AMK",0.75
same,ΣFIC,"MAC; MAC A5, SQ641 + CLA, ≦0.5 synergistic, ≧4.0 antagonistic",0.75
same,MIC Combination,"MAC; MAC A5, combination SQ641 + AMK",0.125 µg/mL
same,MIC Combination,"MAC; MAC A5, combination SQ641 + CLA",0.125 µg/mL
same,MIC Combination,"MAC; MAC A5, combination SQ641 + EMB",0.062 µg/mL
same,ΣFIC,"MAC; MAC JSH1, SQ641 + AMK",0.625
same,ΣFIC,"MAC; MAC JSH1, SQ641 + CLA",2.0
same,MIC Combination,"MAC; MAC JSH1, combination SQ641 + AMK",0.125 µg/mL
same,MIC Combination,"MAC; MAC JSH1, combination SQ641 + CLA",1 µg/mL
same,MIC Combination,"MAC; MAC JSH1, combination SQ641 + EMB",0.25 µg/mL
same,ΣFIC,"MAC; MAC NIH C1-1, SQ641 + AMK",1.0
same,ΣFIC,"MAC; MAC NIH C1-1, SQ641 + CLA",2.0
same,MIC Combination,"MAC; MAC NIH C1-1, combination SQ641 + AMK",0.5 µg/mL
same,MIC Combination,"MAC; MAC NIH C1-1, combination SQ641 + CLA",2.0 µg/mL
same,MIC Combination,"MAC; MAC NIH C1-1, combination SQ641 + EMB",0.06 µg/mL
same,MIC,MAC; MAC A5,0.25 µg/mL
same,MIC,MAC; MAC JSH1,1 µg/mL
same,MIC,MAC; MAC NIH C1-1,2 µg/mL
same,Mean RLU at Day 7,"[2]; Expt 1, one day drug exposure, 5 μg/ml, Day 0 RLU 104, CONTROL Day 7 906",95 RLU
same,Mean RLU at Day 7,"[2]; Expt 1, one day drug exposure, 10 μg/ml, Day 0 RLU 104, CONTROL Day 7 906",64 RLU
same,Mean RLU at Day 7,"[2]; Expt 1, one day drug exposure, 20 μg/ml, Day 0 RLU 104, CONTROL Day 7 906",47 RLU
same,Mean RLU at Day 7,"[2]; Expt 2, four days drug exposure, 4 μg/ml, Day 0 RLU 205, CONTROL Day 7 491",62 RLU
same,Mean RLU at Day 7,"[2]; Expt 2, four days drug exposure, 8 μg/ml, Day 0 RLU 205, CONTROL Day 7 491",32 RLU
same,Mean RLU at Day 7,"[2]; Expt 2, four days drug exposure, 16 μg/ml, Day 0 RLU 205, CONTROL Day 7 491",17 RLU
same,Mean RLU at Day 7,"[2]; Expt 2, four days drug exposure, 32 μg/ml, Day 0 RLU 205, CONTROL Day 7 491",8 RLU
